PMC3951999 (Cancer cell, 2011)
Read-outs that look alike come from different tables or passages of the source.

Experiments:
[1] = tested on: K562 cells expressing HRAS^G12V; assay type: cell-based, human; conditions: for MEK and ERK phosphorylation: pathway already saturated
RAS [2] = test: RAS-GTP capture assay, BCR-ABL Ba/F3 cells; assay type: cell-based, murine; conditions: nilotinib 1μM, 60 min
CRAF^T421N = CRAF^T421N (Homo sapiens, UniProt P04049, T421N); test: RAF kinase assay, myc-tagged CRAF^T421N captured from COS cells; conditions: gatekeeper mutant; imatinib 10μM, nilotinib 1μM, dasatinib 5μM
CRAF [3] = target: T1, CRAF (Homo sapiens, UniProt P04049); conditions: D04 cells; imatinib 10μM, nilotinib 1μM, dasatinib 5μM, 3 hr
[4] = tested on: mononuclear cells harbouring native BCR-ABL from newly diagnosed CML patients; conditions: primary BCR-ABL cells; nilotinib 1μM, PD184352 0.3μM, 96 hr
[5] = tested on: BCR-ABL^T315I expressing mononuclear cells from imatinib-resistant CML patients; test: Cell proliferation; conditions: primary BCR-ABL^T315I cells; nilotinib 1μM, PD184352 0.3μM, 96 hr
RAS [6] = test: RAS activity in K562 cells; assay type: cell-based, human
BV173 cells [7] = test: Western blots of CRAF immunoprecipitates and lysates, BV173 cells; assay type: cell-based, human
[8] = tested on: Ba/F3 cells expressing BCR-ABL^G250E/T315I, BCR-ABL^E255K/T315I and BCR-ABL^E255V/T315I; test: Western blots, Ba/F3 cells expressing compound BCR-ABL mutants; assay type: cell-based, murine; conditions: Ba/F3 cells with compound BCR-ABL mutants
K562R cells [9] = test: Western blots, K562R cells; assay type: cell-based, human
D04 cells (NRAS^Q61L) = conditions: western blot
[10] = tested on: BCR-ABL^G250E/T315I, BCR-ABL^E255K/T315I and BCR-ABL^E255V/T315I Ba/F3 cells; test: Cell proliferation, Ba/F3 cells expressing compound BCR-ABL mutants; conditions: Ba/F3 cells with compound BCR-ABL mutants; PD184352 2μM, nilotinib 1μM, 4 days
K562R cells [11] = test: Apoptosis; assay type: cell-based, human; conditions: PD184352 1μM, 4 days
[12] = patient plasma; ref Weisberg et al., 2007; Demetri et al., 2002; cited from earlier work
[13] = tested on: BCR-ABL^T315I Ba/F3 cells; test: Western blots of CRAF immunoprecipitates and lysates, BCR-ABL^T315I Ba/F3 cells
BCR-ABL Ba/F3 allografts = test: Tumor allograft growth, BCR-ABL Ba/F3 cells in nude mice; assay type: in vivo; conditions: BCR-ABL tumors; 25 mg/kg, oral gavage daily
BV173 cells [14] = test: Cell proliferation and apoptosis; conditions: PD184352 0.2μM, nilotinib 0.1μM, 6 days
BCR-ABL Ba/F3 cells [15] = test: Cell proliferation, BCR-ABL Ba/F3 cells; conditions: PD184352 2μM, imatinib 3μM, nilotinib 1μM, 4 days
CRAF [16] = target: T2, CRAF (Mus musculus, UniProt Q99N57); test: Endogenous CRAF kinase activity in BCR-ABL Ba/F3 cells
T2 sequence (Q99N57 whole entry): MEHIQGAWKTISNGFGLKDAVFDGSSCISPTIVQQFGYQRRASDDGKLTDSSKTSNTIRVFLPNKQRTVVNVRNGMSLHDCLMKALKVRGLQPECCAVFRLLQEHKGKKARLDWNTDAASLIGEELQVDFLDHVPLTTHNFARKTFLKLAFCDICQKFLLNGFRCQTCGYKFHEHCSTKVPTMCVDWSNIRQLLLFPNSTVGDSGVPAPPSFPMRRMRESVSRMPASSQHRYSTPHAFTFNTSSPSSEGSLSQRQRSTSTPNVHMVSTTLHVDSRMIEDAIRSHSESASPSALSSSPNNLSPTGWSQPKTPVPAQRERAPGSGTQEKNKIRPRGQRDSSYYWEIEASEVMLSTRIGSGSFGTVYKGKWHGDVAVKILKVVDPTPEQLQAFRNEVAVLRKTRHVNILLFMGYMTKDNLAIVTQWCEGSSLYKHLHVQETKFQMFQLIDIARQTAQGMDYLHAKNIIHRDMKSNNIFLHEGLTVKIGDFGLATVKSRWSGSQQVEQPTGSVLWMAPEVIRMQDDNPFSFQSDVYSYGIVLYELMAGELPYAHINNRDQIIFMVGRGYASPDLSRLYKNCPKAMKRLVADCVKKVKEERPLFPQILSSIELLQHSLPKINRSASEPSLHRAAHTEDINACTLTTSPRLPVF

BCR-ABL Ba/F3 cells [17] = test: Apoptosis; conditions: 4 days
K562 cells [18] = test: Western blots of CRAF immunoprecipitates and lysates, K562 cells; assay type: cell-based, human
K562 cells [19] = test: Apoptosis; assay type: cell-based, human; conditions: PD184352 1μM, 4 days
[20] = tested on: BCR-ABL^T315I Ba/F3 allografts; test: Tumor allograft growth, BCR-ABL^T315I Ba/F3 cells in nude mice; assay type: in vivo; conditions: BCR-ABL^T315I tumors; 25 mg/kg, oral gavage daily
[21] = tested on: BCR-ABL^T315I Ba/F3 cells; test: Cell proliferation, BCR-ABL^T315I Ba/F3 cells
BCR-ABL Ba/F3 cells [22] = test: Western blots of CRAF immunoprecipitates and lysates, BCR-ABL Ba/F3 cells
CRAF [23] = target: T2, CRAF; conditions: BCR-ABL^T315I Ba/F3 cells
CRAF [24] = target: T1, CRAF; test: RAF kinase assay, myc-tagged CRAF captured from COS cells; conditions: imatinib 10μM, nilotinib 1μM, dasatinib 5μM
[25] = tested on: BV173R cells (BCR-ABL^T315I)
[26] = tested on: CD34+ hematopoietic cells from healthy individuals; test: Cell proliferation; conditions: nilotinib 1μM, PD184352 0.3μM, 96 hr
[27] = tested on: SW620 (KRAS^G12V), Panc1 (KRAS^G12D) and H460 (KRAS^Q61H) cells; test: Western blot for MEK and ERK activation in KRAS mutant cells; assay type: cell-based, human; conditions: imatinib 10μM, nilotinib 1μM, dasatinib 5μM
RAS [28] = test: RAS activity in K562R cells; assay type: cell-based, human
[29] = tested on: BCR-ABL^T315I Ba/F3 cells; test: Apoptosis; conditions: 4 days
BV173R cells = test: Cell proliferation and apoptosis; conditions: PD184352 0.2μM, nilotinib 0.1μM, 6 days
BRAF binding to CRAF = BRAF binding to CRAF with PLX4720; assay type: cell-based; conditions: Fig S3C; cells not given
CML = conditions: first-line treatment of CML; ref Quintás-Cardama et al., 2009; cited from earlier work
[30] = imatinib 10μM, nilotinib 1μM, dasatinib 5μM

## Cc1cn(-c2cc(NC(=O)c3ccc(C)c(Nc4nccc(-c5cccnc5)n4)c3)cc(C(F)(F)F)c2)cn1 [nilotinib]
[1]; [30]
  BRAF binding to CRAF: induced BRAF binding to CRAF
[1]
  MEK and ERK phosphorylation: did not increase MEK and ERK phosphorylation
RAS [2]
  RAS activity (RAS-GTP): blocked RAS activity
CRAF^T421N
  CRAF^T421N kinase activity in vitro: resistant
CRAF [3]
  endogenous CRAF kinase activity: activated
[4]
  cell proliferation: inhibited the proliferation
[5]
  cell growth: did not affect the growth
RAS [6]
  RAS activity: suppressed RAS activity
BV173 cells [7]
  BCR-ABL and CRKL phosphorylation: inhibited BCR-ABL and CRKL phosphorylation
  BRAF binding to CRAF: did not induce BRAF binding to CRAF
  MEK and ERK activity: inhibited MEK and ERK
[8]
  BCR-ABL and CRKL phosphorylation: did not inhibit BCR-ABL or CRKL phosphorylation
  BRAF binding to CRAF, MEK and ERK activation: induced BRAF binding to CRAF as well as MEK and ERK activation
K562R cells [9]
  BCR-ABL and CRKL phosphorylation: blocked BCR-ABL and CRKL phosphorylation
  CRAF, MEK and ERK phosphorylation: did not block CRAF, MEK or ERK phosphorylation
D04 cells (NRAS^Q61L)
  lowest concentration stimulating robust MEK and ERK phosphorylation: 100 nM
[10]
  cell proliferation: did not affect proliferation
K562R cells [11]
  growth / cell death: did not affect the growth
[12]
  peak plasma/serum concentration: ~4 µM
[13]
  BRAF binding to CRAF: enhanced BRAF binding to CRAF
  CRAF (S338) phosphorylation, MEK and ERK activity/phosphorylation: induced CRAF phosphorylation on S338 (Fig 3C) and activated CRAF (Fig 3D), MEK and ERK
[13]; BCR-ABL^T315I Ba/F3 cells
  BCR-ABL and CRKL phosphorylation: did not inhibit BCR-ABL or CRKL phosphorylation
BCR-ABL Ba/F3 allografts
  tumor growth: strongly suppressed
BV173 cells [14]
  cell proliferation and apoptosis: inhibited cell proliferation and induced apoptosis
BCR-ABL Ba/F3 cells [15]
  cell growth: sensitive
CRAF [16]
  CRAF activity: blocked CRAF activity
BCR-ABL Ba/F3 cells [17]
  apoptosis: induced apoptosis
K562 cells [18]
  BCR-ABL and CRKL phosphorylation: inhibited BCR-ABL and CRKL phosphorylation
  CRAF, MEK and ERK phosphorylation: inhibited CRAF, MEK and ERK phosphorylation
K562 cells [18]; [30]
  BRAF binding to CRAF: did not induce BRAF binding to CRAF
K562 cells [19]
  apoptosis / cell death: induced apoptosis
[20]
  tumor growth: insensitive
[21]
  cell growth: resistant
BCR-ABL Ba/F3 cells [22]
  BRAF binding to CRAF: did not affect BRAF binding to CRAF
BCR-ABL Ba/F3 cells [22]; BCR-ABL Ba/F3 cells
  BCR-ABL (Y245) and CRKL (Y207) phosphorylation: blocked
CRAF [23]
  CRAF activity: activated CRAF
CRAF [24]
  CRAF kinase activity in vitro: inhibited
[25]
  BRAF binding to CRAF: induced BRAF binding to CRAF
  MEK and ERK activity: activated MEK and ERK
[26]
  cell proliferation: resistant
[27]
  MEK and ERK activation: activated MEK and ERK
RAS [28]
  RAS activity: did not inhibit RAS

## O=C(NOCC1CC1)c1ccc(F)c(F)c1Nc1ccc(I)cc1Cl [PD184352]
[5]
  cell growth: did not affect the growth
[29]
  apoptosis: did not induce apoptosis
[10]
  cell proliferation: did not affect proliferation
K562R cells [11]
  growth / cell death: did not affect the growth
BV173 cells [14]
  cell proliferation and apoptosis: did not inhibit cell proliferation or induce apoptosis
BCR-ABL Ba/F3 cells [15]
  cell growth: did not inhibit the growth
BCR-ABL Ba/F3 cells [17]
  apoptosis: did not induce apoptosis
K562 cells [19]
  apoptosis / cell death: did not kill these cells
[20]
  tumor growth: insensitive
BV173R cells
  cell proliferation and apoptosis: did not inhibit cell proliferation or induce apoptosis
[26]
  cell proliferation: resistant

## CCCS(=O)(=O)Nc1ccc(F)c(C(=O)c2c[nH]c3ncc(Cl)cc23)c1F [PLX4720]
BRAF binding to CRAF
  BRAF binding to CRAF: did not induce strong binding of BRAF to CRAF

## Cc1ccc(NC(=O)c2ccc(CN3CCN(C)CC3)cc2)cc1Nc1nccc(-c2cccnc2)n1 [imatinib]
[1]
  MEK and ERK phosphorylation: did not increase MEK and ERK phosphorylation
BV173 cells [7]
  BCR-ABL and CRKL phosphorylation: inhibited BCR-ABL and CRKL phosphorylation
  MEK and ERK activity: inhibited MEK and ERK
CML
  patients who do not achieve complete responses: 20-30%
[27]
  MEK and ERK activation: activated MEK and ERK
